“And” between values parts separate entries of the source, which are not always exact repeats. Equal values may be shown once.

Data on 15 compounds can be found in PubChem BioAssay AID342 (DTP/NCI, 2004).

The subject of this assay is Swiss mice, Sarcoma 180 sc, mean tumor weight T/C. The experiment in a line: NCI In Vivo Anticancer Drug Screen. Data for tumor model Sarcoma 180 (subcutaneous) in Swiss mice. The conditions noted are these: endpoint: mean tumor weight, higher = larger tumour. The method, boiled down:
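Tumor-bearing mice, transplantable tumor; readout survival or tumor size; result = T/C, treated vs vehicle control.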

Regarding `C[C@]12CC[C@H](O)CC1=CC[C@@H]1[C@@H]2CC[C@]2(C)c3nc4ccccc4cc3C[C@@H]12`, the T/C reads like this: (dose: 15.6 mg/kg/injection, schedule: Q01DX007 (sc), vehicle: saline) 93 % of control; (dose: 62.5 mg/kg/injection, schedule: Q01DX007 (sc), vehicle: saline) 57 % of control; (dose: 125.0 mg/kg/injection, schedule: Q01DX007 (sc), vehicle: saline) 95 % of control; (dose: 250.0 mg/kg/injection, schedule: Q01DX007 (sc), vehicle: saline) 66 % of control; (dose: 500.0 mg/kg/injection, schedule: Q01DX007 (sc), vehicle: saline) 93 % of control.

Consider `CC/C(=C(/CC)c1ccc(O)cc1)c1ccc(O)cc1`, for which the T/C is 54 % of control (dose: 19.69 mg/kg/injection, schedule: Q01DX007 (sc), vehicle: steriod suspending solution); 51 % of control (dose: 22.13 mg/kg/injection, schedule: Q01DX007 (sc), vehicle: steriod suspending solution); 51 % of control (dose: 24.0 mg/kg/injection, schedule: Q01DX007 (sc), vehicle: steriod suspending solution); 42 % of control (dose: 39.38 mg/kg/injection, schedule: Q01DX007 (sc), vehicle: steriod suspending solution); 60 % of control (dose: 44.25 mg/kg/injection, schedule: Q01DX007 (sc), vehicle: steriod suspending solution); 37 % of control (dose: 48.0 mg/kg/injection, schedule: Q01DX007 (sc), vehicle: steriod suspending solution). Also, the T/C by setting is: (dose: 70.8 mg/kg/injection, schedule: Q01DX007 (sc), vehicle: steriod suspending solution) 80 % of control; (dose: 78.75 mg/kg/injection, schedule: Q01DX007 (sc), vehicle: steriod suspending solution) 65 % of control; (dose: 96.0 mg/kg/injection, schedule: Q01DX007 (sc), vehicle: steriod suspending solution) 30 % of control; (dose: 118.0 mg/kg/injection, schedule: Q01DX007 (sc), vehicle: steriod suspending solution) 72 % of control; (dose: 157.5 mg/kg/injection, schedule: Q01DX007 (sc), vehicle: steriod suspending solution) 52 % of control; (dose: 177.0 mg/kg/injection, schedule: Q01DX007 (sc), vehicle: steriod suspending solution) 57 % of control.

With `Nc1ccc2c(c1)Cc1cc(NC=O)ccc1-2`, the T/C was 98 % of control (dose: 55.5 mg/kg/injection, schedule: Q01DX007 (ip), vehicle: carboxymethylcellulose (CMC)); 52 % of control (dose: 83.3 mg/kg/injection, schedule: Q01DX007 (ip), vehicle: carboxymethylcellulose (CMC)); 72 % of control (dose: 125.0 mg/kg/injection, schedule: Q01DX007 (ip), vehicle: carboxymethylcellulose (CMC)); 36 % of control (dose: 187.5 mg/kg/injection, schedule: Q01DX007 (ip), vehicle: carboxymethylcellulose (CMC)).

Take `CC(=O)OC(C)(C)/C=C/C(=O)[C@](C)(O)[C@H]1[C@H](O)C[C@@]2(C)[C@@H]3CC=C4[C@@H](C=C(O)C(=O)C4(C)C)[C@]3(C)C(=O)C[C@]12C`: the T/C runs as follows: (dose: 0.4 mg/kg/injection, schedule: Q01DX007 (ip), vehicle: carboxymethylcellulose (CMC)) 54 % of control; (dose: 0.8 mg/kg/injection, schedule: Q01DX007 (ip), vehicle: carboxymethylcellulose (CMC)) 29 % of control; (dose: 1.6 mg/kg/injection, schedule: Q01DX007 (ip), vehicle: carboxymethylcellulose (CMC)) 94 % of control; (dose: 3.2 mg/kg/injection, schedule: Q01DX007 (ip), vehicle: carboxymethylcellulose (CMC)) 88 % of control.

As for `CCCCNP(=O)(N1CC1)N1CC1`, the T/C (dose: 0.15 mg/kg/injection, schedule: Q#A X014 (ip), vehicle: saline) is 18 % of control and the T/C (dose: 0.25 mg/kg/injection, schedule: Q#A X014 (ip), vehicle: saline) was 7 % of control.

As for `COC(=O)C1C(O)CCC2CN3CCc4c([nH]c5ccccc45)C3CC21` (stereo not drawn), under “dose: 150.0 mg/kg/injection, schedule: Q01DX007 (ip), vehicle: carboxymethylcellulose (CMC)”, the T/C is 72 % of control.

As to `CN1CC2CC(C1)c1cccc(=O)n1C2` (stereo not drawn), the T/C is, setting by setting: (dose: 6.6 mg/kg/injection, schedule: Q01DX007 (ip), vehicle: saline) 111 % of control; (dose: 10.0 mg/kg/injection, schedule: Q01DX007 (ip), vehicle: saline) 49 % of control; (dose: 15.0 mg/kg/injection, schedule: Q01DX007 (ip), vehicle: saline) 113 % of control; (dose: 22.0 mg/kg/injection, schedule: Q01DX007 (ip), vehicle: saline) 74 % of control.

In the case of `O=C(NC(CO)C(=O)O)C(Cl)Cl` (stereo not drawn), the T/C was 47 % of control (dose: 500.0 mg/kg/injection, schedule: Q#A X014 (ip), vehicle: methylcellulose (MC)); 52 % of control (dose: 1000.0 mg/kg/injection, schedule: Q#A X014 (ip), vehicle: methylcellulose (MC)); 60 % of control (dose: 1500.0 mg/kg/injection, schedule: Q#A X014 (ip), vehicle: methylcellulose (MC)); 66 % of control (dose: 2000.0 mg/kg/injection, schedule: Q#A X014 (ip), vehicle: methylcellulose (MC)); 68 % of control (dose: 2500.0 mg/kg/injection, schedule: Q#A X014 (ip), vehicle: methylcellulose (MC)).

In the case of `COC(=O)c1cccc2c[n+]3c(cc12)-c1[nH]c2cc(OC)ccc2c1CC3`, the T/C runs as follows: (dose: 10.0 mg/kg/injection, schedule: Q01DX007 (ip), vehicle: other) 70 % of control; (dose: 50.0 mg/kg/injection, schedule: Q01DX007 (ip), vehicle: other) 73 % of control; (dose: 200.0 mg/kg/injection, schedule: Q01DX007 (ip), vehicle: other) 74 % of control.

As for `CC1CC(C)C(O)C(C(O)CC2CC(=O)NC(=O)C2)C1` (stereo not drawn), the T/C reads like this: (dose: 40.0 mg/kg/injection, schedule: Q01DX007 (ip), vehicle: carboxymethylcellulose (CMC)) 84 % of control; (dose: 62.0 mg/kg/injection, schedule: Q01DX007 (ip), vehicle: carboxymethylcellulose (CMC)) 55 % of control; (dose: 93.0 mg/kg/injection, schedule: Q01DX007 (ip), vehicle: carboxymethylcellulose (CMC)) 44 % of control.

As for `CC(=O)OCC(=O)C1(O)C(C)CC2C3C=C(C)C4=Cc5c(cnn5-c5ccccc5)CC4(C)C3C(O)CC21C` (stereo not drawn), the T/C by setting is: (dose: 0.16 mg/kg/injection, schedule: Q01DX007 (sc), vehicle: steriod suspending solution) 115 % of control; (dose: 0.25 mg/kg/injection, schedule: Q01DX007 (sc), vehicle: steriod suspending solution) 39 % of control and 42 % of control; (dose: 8.0 mg/kg/injection, schedule: Q01DX007 (sc), vehicle: steriod suspending solution) 15 % of control.

For the compound `Cc1cc2nc3c(=O)[nH]c(=O)nc-3n(CCOC(=O)CCC(=O)O)c2cc1C`, the T/C is, setting by setting: (dose: 14.37 mg/kg/injection, schedule: Q#A X014 (ip), vehicle: carboxymethylcellulose (CMC)) 109 % of control; (dose: 28.75 mg/kg/injection, schedule: Q#A X014 (ip), vehicle: carboxymethylcellulose (CMC)) 122 % of control; (dose: 57.5 mg/kg/injection, schedule: Q#A X014 (ip), vehicle: carboxymethylcellulose (CMC)) 87 % of control; (dose: 115.0 mg/kg/injection, schedule: Q#A X014 (ip), vehicle: carboxymethylcellulose (CMC)) 56 % of control.

`OC(CBr)C(O)C(O)C(O)CBr` (stereo not drawn): the T/C is 106 % of control (dose: 25.0 mg/kg/injection, schedule: Q01DX007 (ip), vehicle: saline); 95 % of control and 117 % of control (dose: 50.0 mg/kg/injection, schedule: Q01DX007 (ip), vehicle: saline); 104 % of control and 107 % of control (dose: 100.0 mg/kg/injection, schedule: Q01DX007 (ip), vehicle: saline); 88 % of control (dose: 400.0 mg/kg/injection, schedule: Q01DX007 (ip), vehicle: saline).

For the compound `NNC(=O)c1nsnc1N`, the T/C (dose: 75.0 mg/kg/injection, schedule: Q01DX007 (ip), vehicle: carboxymethylcellulose (CMC)) was 97 % of control.

As for `O=C1C=CC(=Nc2ccc3c(c2)C(Br)c2ccccc2-3)O1` (stereo not drawn), the T/C reads like this: (dose: 16.5 mg/kg/injection, schedule: Q#A X014 (ip), vehicle: saline) 57 % of control and 75 % of control; (dose: 37.5 mg/kg/injection, schedule: Q#A X014 (ip), vehicle: saline) 100 % of control; (dose: 56.25 mg/kg/injection, schedule: Q#A X014 (ip), vehicle: saline) 73 % of control.
